For assay [1], the system named is Reduced glutathione in salivary gland cell clusters (SGm). Nature of the assay: Glutathione assay in salivary gland tissue chip, 4 days post-radiation (15 Gy); also first screen of Selleck library at 100 μM. In kind it is cell-based, mouse. The conditions noted are these: for Glutathione normalized mean intensity: first screen of Selleck library at 100 μM; for Glutathione normalized mean intensity / prevention of radiation-induced reduction of glutathione levels: 4 days post-radiation; for Estimated EC50, Glutathione: nonlinear fit in Prism of dose response curves. An excerpt: (§1) A salivary gland tissue chip was leveraged for high-content drug screening to identify novel radioprotective compounds (Song Y et al., Commun Biol., 2021, 4). The chip platform consists of an array of near-spherical microbubble (MB) cavities formed in poly(dimethylsiloxane) (PDMS). Each chip, containing ~50 MBs, affixed within wells of a 96-well plate (FIG. 1C). Primary salivary gland cell clusters (FIG. 1A), suspended in a poly(ethylene glycol) (PEG) hydrogel precursor and MMP-degradable peptide crosslinker solution together with the photoinitiator LAP, were applied to the chip allowing the clusters to deposit into the MBs (FIG. 1D). In situ polymerization of the hydrogel was achieved using long-wave, low intensity UV light. Over time, the cell clusters aggregate and proliferate to form SGm (FIG. 1C).
The glutathione assay was used to measure glutathione levels at various time points post-radiation to determine the optimal time point for detecting differences between 0 Gy and 15 Gy. Based on the data, the greatest signal separation was measured at 4 days post-irradiation (FIG. 9). This timepoint is similar to previous reports on decreases in glutathione post-radiation and was used for all experiments moving forward (Meeks L et al., Physiological Genomics, 2021, 53: 85-98).
The dose response to WR-1065 was examined to determine effective concentrations of WR-1065 to prevent the reduction of glutathione levels post-radiation. A SGm tissue chip was cultured for 4 days to allow spheres to form. The chip was then treated with WR-1065 30 minutes before and during radiation, followed by drug wash out with media 30 minutes post-radiation (FIG. 2A). This dosing scheme is consistent with the use of Amifostine clinically and with previous work. The glutathione assay was performed at 4 days post-radiation (FIG. 2A). […] Moreover, it is clinically relevant as 15-30 minutes before radiation, patients are administered Amifostine intravenously at 200 mg/m (Escobar A et al., IntechOpen, 2019, pp. 15-37; Eisbruch A, J Clin Oncol, 2011, 29: 119-121; Bardet, E. et al. Semin Oncol, 2002, 29, 57-60). Assuming an average adult body surface area of 17,000 cm^2 and a blood volume of 1.35 gallons (5.1 liters), Amifostine is administered at 300 μM (Mosteller, R. D. N Engl J Med 317, 1098 (1987)).
The glutathione and senescence assays were used to screen a library of FDA-approved drugs (Selleck Chemicals) at 100 μM. Drugs were first screened using the glutathione assay according to the timeline depicted in FIG. 2A. Any compound resulting in statistically similar glutathione levels compared to 0 Gy control was considered a hit (FIG. 4, grey circles). Hits with the glutathione assay were then tested with the senescence assay and considered a “double hit” if senescence levels were statistically similar to levels at 0 Gy (FIG. 4, black circles). […] While this hit rate is higher than many other drug screening reports (0.1-0.3%), this may be due to the statistical rigor afforded by the tissue chip format (Blanchard, C et al., Antimicrob Agents Chemother 2016, 60, 862-872; Colquhoun, J. M et al., Antibiotics (Basel) 2019, 8, 48). Additionally, phenotypic screens generally have higher hit rates than target-based screens (>1%) (Moffat, J. G et al., Nature Reviews Drug Discovery 2017, 16, 531-543; Rottman, M et al., Science 2010, 329, 1175-1180).
Mice were euthanized and the submandibular glands (SMG) were removed and chopped with a razor blade for 5 min. The tissue was then incubated in Hank's buffered salt solution (HBSS) containing 15 mM HEPES, 50 U/mL collagenase type II (Thermo Fischer 17101015), and 100 U/mL hyaluronidase (Sigma Aldrich H3506) at 37 °C for 30 min. Cells were centrifuged, then resuspended in HBSS with 15 mM HEPES and passed through 100 μm and 20 μm mesh filters to isolate clusters between 20-100 μm. The digestion protocol produces cell cluster sizes evenly distributed between 20 to 100 μm (Song, Y et al., Advanced Healthcare Materials). […]

The subject of assay [2] is senescence-associated β-galactosidase in salivary gland cell clusters (SGm). The experiment in a line: Cellular senescence assay (SPiDER-βGal) in salivary gland tissue chip, 5 days post-radiation (15 Gy); also second screen of library hits at 100 μM. The format is cell-based, mouse. The conditions noted are these: for Senescence normalized mean intensity: second screen of library hits at 100 μM, 5 days post-radiation, only drugs nonsignificant compared to 0 Gy in the glutathione assay; for double hit in the drug screen: glutathione and senescence assays, 100 μM, statistically similar to 0 Gy.
Description: as §1, with “The” for “A salivary gland tissue chip was leveraged for high-content drug screening to identify novel radioprotective compounds (Song Y et al., Commun Biol., 2021, 4). The”
For senescence, a protocol similar to the glutathione assay was followed to determine the optimal time point post-radiation for detecting a change in senescence between 0 Gy and 15 Gy, as measured by senescence-associated β-galactosidase activity.
The glutathione and senescence assays were used to screen a library of FDA-approved drugs (Selleck Chemicals) at 100 μM. Drugs were first screened using the glutathione assay according to the timeline depicted in FIG. 2A. […] Hits with the glutathione assay were then tested with the senescence assay and considered a “double hit” if senescence levels were statistically similar to levels at 0 Gy (FIG. 4, black circles).
Mice were euthanized and the submandibular glands (SMG) were removed and chopped with a razor blade for 5 min. […] Cells were centrifuged, then resuspended in HBSS with 15 mM HEPES and passed through 100 μm and 20 μm mesh filters to isolate clusters between 20-100 μm. […] The isolated clusters were combined with hydrogel precursor solution and seeded in MB array-based chips as described below.
The cell/gel precursor solution (25 μL for 48 well; 20 μL for 96 well) was pipetted onto the MB chips and incubated for 30 min, pipetting every 10 min to redisperse cells that had settled onto the surface of the chip.
A cellular senescence assay for the chips was developed by adapting the Cellular Senescence Detection Kit—SPiDER-βGal (Dojindo Molecular Technologies, Inc. SG04). Bafilomycin A1 and SPiDER-βGal stock solutions were prepared in DMSO per manufacturer directions. The assay was performed by first incubating the chips with bafilomycin A1 (1:1000 dilution in media) for 1 hr at 37 °C. […] Chips were washed twice with media and imaged using a fluorescence microscope with a Texas Red filter (Excitation: 580 nm; Emission: 604 nm).
For radioprotection experiments, SGm were cultured in MB-hydrogel chips for 4 days, then drugs were added to the chips 30 min prior to irradiation and washed out with media 30 min post-radiation treatment. […] The glutathione and senescence assays were performed at 4- and 5-days post-radiation. For assay validation experiments, at least 3 chips (N=3) were used for each drug, corresponding to >100 MBs (n>100); these values are listed in the figure description for each experiment. Mean, standard deviation, and statistics were calculated based on the number of MBs (n).
For screening of the Selleck Chemicals compound library, the same treatment scheme was used, with drugs administered at 100 μM. One MB chip (N=1) was used per compound, with ~40-50 MBs per chip […]; statistics were calculated using the number of MBs (n) and compared to 0 Gy controls.
For both the glutathione and cellular senescence assays, images were quantified in ImageJ.

Counter-ions that a name gives are not always drawn.

Turning to `CC(=O)OCC[N+](C)(C)C.[Cl-]` [Acetylcholine chloride], the “Glutathione normalized mean intensity” value in assay [1] (15 Gy) is recorded as 1.04. In assay [2] (15 Gy), the “Senescence normalized mean intensity” value is 1.205.

In the case of `Cc1cnc(C(=O)O)c[n+]1[O-]` [Acipimox], in assay [1] (15 Gy), the “Glutathione normalized mean intensity” value came to 1.03. Moreover, the “Senescence normalized mean intensity” value in assay [2] (15 Gy) is reported as 1.379.

On to `NC(N)=NC(=O)c1nc(Cl)c(N)nc1N` [Amiloride hydrochloride (Midamor)], for which, in assay [1] (15 Gy), the “Glutathione normalized mean intensity” value is listed as 1.018. For the same molecule, the “Senescence normalized mean intensity” value in assay [2] (15 Gy) was 1.487.

Consider `COc1ccccc1OCCNCC(O)COc1cccc2[nH]c3ccccc3c12` (stereo not drawn) [Carvedilol], for which the “Glutathione normalized mean intensity” value in assay [1] (15 Gy) is listed as 0.9878. Also, in assay [2] (15 Gy), the “Senescence normalized mean intensity” value is recorded as 1.255.

On to `C[C@H](CCC(=O)O)[C@H]1CC[C@H]2[C@@H]3[C@H](O)C[C@@H]4C[C@H](O)CC[C@]4(C)[C@H]3CC[C@]12C` [Chenodeoxycholic acid], for which, in assay [1] (15 Gy), the “Glutathione normalized mean intensity” value was found to be 1.11. In assay [2] (15 Gy), the “Senescence normalized mean intensity” value amounted to 1.45.

As for `CN(C)CCC(c1ccc(Cl)cc1)c1ccccn1` (stereo not drawn) [Chlorpheniramine Maleate], the “Glutathione normalized mean intensity” value in assay [1] (15 Gy) is 1.145. The “Senescence normalized mean intensity” value in assay [2] (15 Gy) is 1.308.

For `CN1CCC[C@@H]1CCO[C@](C)(c1ccccc1)c1ccc(Cl)cc1` [Clemastine Fumarate], the “Glutathione normalized mean intensity” value in assay [1] (15 Gy) came to 1.106. For the same molecule, the “Senescence normalized mean intensity” value in assay [2] (15 Gy) was 1.237.

Consider `CCOC(=O)C(C)(C)Oc1ccc(Cl)cc1` [Clofibrate (Atromid-S)], for which, in assay [1] (15 Gy), the “Glutathione normalized mean intensity” value was 1.009. Also, the “Senescence normalized mean intensity” value in assay [2] (15 Gy) is recorded as 1.714.

For `COc1cc(/C=C/C(=O)CC(=O)/C=C/c2ccc(O)c(OC)c2)ccc1O` [Curcumin], the “Glutathione normalized mean intensity” value in assay [1] (15 Gy) was 0.9059. In addition, in assay [2] (15 Gy), the “Senescence normalized mean intensity” value came to 0.8098.

On to `CC/C(=C(/CC)c1ccc(O)cc1)c1ccc(O)cc1` [Diethylstilbestrol (Stilbestrol)], for which the “concentration range of radioprotection, glutathione assay” value in assay [1] (dose response, 15 Gy) lay in the range of 10 to 100 µM. Also, in assay [1] (15 Gy), the “Glutathione normalized mean intensity” value is 0.8894 and the “Estimated EC50, Glutathione” value was 0.7 µM. Moreover, the “concentration range of radioprotection, senescence assay” value in assay [2] (dose response, 15 Gy) is 50 to 100 µM. Also, the “Estimated EC50, Senescence” value in assay [2] (nonlinear fit in Prism of dose response curves, 15 Gy) is 37.7 µM. Moreover, in assay [2] (15 Gy), the “Senescence normalized mean intensity” value was determined as 0.8812.

As to `CC(C(=O)[O-])c1cccc(Oc2ccccc2)c1.CC(C(=O)[O-])c1cccc(Oc2ccccc2)c1.[Ca+2]` (stereo not drawn) [Fenoprofen calcium], the “Glutathione normalized mean intensity” value in assay [1] (15 Gy) is given as 0.9731. The “Senescence normalized mean intensity” value in assay [2] (15 Gy) turned out to be 1.472.

Regarding `COC(=O)Nc1nc2cc(C(=O)c3ccc(F)cc3)ccc2[nH]1` [Flubendazole (Flutelmium)], the “Glutathione normalized mean intensity” value in assay [1] (15 Gy) is on record as 1.065. In assay [2] (15 Gy), the “Senescence normalized mean intensity” value is given as 1.444.

Turning to `Cc1cnc(C(=O)NCCc2ccc(S(=O)(=O)NC(=O)NC3CCCCC3)cc2)cn1` [Glipizide (Glucotrol)], in assay [1] (dose response, 15 Gy), the “radioprotection in dose response, glutathione assay” value is “protection only at higher concentrations”. Moreover, the “Estimated EC50, Glutathione” value in assay [1] (15 Gy) is 4.0 µM. Also, the “radioprotection in dose response, senescence assay” value in assay [2] (dose response, 15 Gy) is recorded as “variable protection”.

As for `O=NN(CCCl)C(=O)NC1CCCCC1` [Lomustine (CeeNU)], the “Glutathione normalized mean intensity” value in assay [1] (15 Gy) came out at 0.9042. Further, in assay [2] (15 Gy), the “Senescence normalized mean intensity” value stood at 1.023.

On to `CC(=O)N[C@@H](CS)C(=O)O` [N-acetylcysteine], for which the “prevention of radiation-induced reduction of glutathione levels” value in assay [1] (1 mM, 15 Gy) was “no improvement in glutathione levels”; in assay [1] (4 mM, 15 Gy), “no improvement in glutathione levels”. Also, the “radioprotection using the glutathione assay” value in assay [1] (10 mM) is given as “partial radioprotection”. The glutathione levels rescued in assay [1] (10 mM, 15 Gy) amounted to 56%. The “protection against radiation-induced senescence” value in assay [2] (10 mM) is “protective”. Also, the inhibition at 1000 µM in assay [2] (Mus musculus, light or radiation study, 120 h, 1 mM, versus untreated, irradiated controls, read-out: reduction in senescence) came out at 83%. In addition, in assay [2] (Mus musculus, light or radiation study, 120 h, 4 mM, versus untreated, irradiated controls, read-out: reduction in senescence), the inhibition at 4000 µM amounted to 57%. Further, the inhibition at 10000 µM in assay [2] (Mus musculus, light or radiation study, 120 h, 10 mM, versus untreated, irradiated controls, read-out: reduction in senescence) turned out to be 82%.

Turning to `COC(=O)C1=C(C)NC(C)=C(C(=O)OC)C1c1ccccc1[N+](=O)[O-]` [Nifedipine (Adalat)], in assay [1] (15 Gy), the “Glutathione normalized mean intensity” value was determined as 0.9216. Besides, the “Senescence normalized mean intensity” value in assay [2] (15 Gy) worked out at 0.9725.

For the molecule `CO[C@H]1/C=C/O[C@@]2(C)Oc3c(C)c(O)c4c(c3C2=O)C2=NC3(CCN(CC(C)C)CC3)NC2=C(NC(=O)/C(C)=C\C=C\[C@H](C)[C@H](O)[C@@H](C)[C@@H](O)[C@@H](C)[C@H](OC(C)=O)[C@@H]1C)C4=O` [Rifabutin (Mycobutin)], the “double hit in the drug screen” value in assay [2] is listed as “double hits”.

On to `CO[C@H]1/C=C/O[C@@]2(C)Oc3c(C)c(O)c4c(O)c(c(/C=N/N5CCN(C)CC5)c(O)c4c3C2=O)NC(=O)/C(C)=C\C=C\[C@H](C)[C@H](O)[C@@H](C)[C@@H](O)[C@@H](C)[C@H](OC(C)=O)[C@@H]1C` [Rifampin], for which the “double hit in the drug screen” value in assay [2] is on record as “double hits”.

Values taken from patent US20260345555A1, “Compositions and Methods for Protecting Salivary Glands from Off-Target Radiation Damage” (University of Rochester, priority 2022, published 2026).
